US8791148B2, “Substituted benzimidazolone derivatives, medicaments comprising them and their use” (AbbVie Deutschland GmbH & Co. KG, priority 2006, dated 2014)

The molecules below were run against T1, human vasopressin V1b receptor (Homo sapiens, UniProt P47901) (assay: Vasopressin V1b receptor binding assay). Conditions: membranes from CHO-K1 cells with stably expressed human V1b receptors; displacement of 1.5 nM 3H-AVP; read-out: V1b receptor affinity (affinity constant Ki).
T1 construct: expressed in transfected cells; host or cells: CHO-K1 (cell line hV1b-3H2_CHO), membrane preparation
T1 sequence (P47901 1-424): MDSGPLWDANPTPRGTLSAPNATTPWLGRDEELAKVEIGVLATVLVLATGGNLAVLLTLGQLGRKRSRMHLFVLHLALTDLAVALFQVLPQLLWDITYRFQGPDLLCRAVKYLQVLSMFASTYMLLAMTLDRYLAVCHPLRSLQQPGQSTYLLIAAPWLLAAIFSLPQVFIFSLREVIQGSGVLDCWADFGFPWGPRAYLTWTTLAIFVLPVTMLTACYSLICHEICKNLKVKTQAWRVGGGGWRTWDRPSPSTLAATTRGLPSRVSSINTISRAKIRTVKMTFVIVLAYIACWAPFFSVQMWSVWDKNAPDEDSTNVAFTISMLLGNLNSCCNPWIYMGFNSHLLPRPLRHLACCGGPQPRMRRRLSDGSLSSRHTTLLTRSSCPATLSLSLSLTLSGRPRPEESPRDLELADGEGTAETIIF
Outline: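 Ki values come from nonlinear regression of triplicate scintillation counts after filtration. Test compound (2% DMSO in the mixture) and radioligand were incubated 60 min at room temperature with human V1b membranes in pH 7.4 Tris buffer with 10 mM MgCl2 and 0.1% BSA. Nonspecific binding was set with 1 uM AVP.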

SMILES | Ki [nM]
COc1ccc(S(=O)(=O)n2c(=O)n(C(C(=O)N3CC[C@H](NC4CCN(C(C)(C)C)CC4)C3)c3ccccc3)c3cc(C#N)ccc32)cc1 (stereo partly drawn) [Example 244, 3-{2-[(S)-3-(1-tert-Butyl-piperidin-4-ylamino)-pyrrolidin-1-yl]-2-oxo-1-phenylethyl}-1-(4-methoxy-benzenesulfonyl)-2-oxo-2,3-dihydro-1H-benzoimidazole-5-carbonitrile] | < 100
COc1ccc(S(=O)(=O)n2c(=O)n(C(C(=O)N3CCC[C@H](NC4CCN(C(C)C)CC4)C3)c3ccccc3)c3cc(C#N)ccc32)cc1 (stereo partly drawn) [Example 247, 3-{2-[(S)-3-(1-Isopropyl-piperidin-4-ylamino)-piperidin-1-yl]-2-oxo-1-phenylethyl}-1-(4-methoxy-benzenesulfonyl)-2-oxo-2,3-dihydro-1H-benzoimidazole-5-carbonitrile] | < 100
COc1ccc(S(=O)(=O)n2c(=O)n(C(C(=O)N3CCC[C@@H](NC4CCN(C(C)C)CC4)C3)c3ccccc3)c3cc(C#N)ccc32)cc1 (stereo partly drawn) [Example 249, 3-{2-[(R)-3-(1-Isopropyl-piperidin-4-ylamino)-piperidin-1-yl]-2-oxo-1-phenylethyl}-1-(4-methoxy-benzenesulfonyl)-2-oxo-2,3-dihydro-1H-benzoimidazole-5-carbonitrile] | < 100
COc1ccc(S(=O)(=O)n2c(=O)n(C(C(=O)N3CC[C@H](Nc4ccncc4)C3)c3ccccc3)c3cc(C#N)ccc32)cc1 (stereo partly drawn) [Example 253, 1-(4-Methoxy-benzenesulfonyl)-2-oxo-3-{2-oxo-1-phenyl-2-[(S)-3-(pyridine-4-ylamino)-pyrrolidin-1-yl]-ethyl}-2,3-dihydro-1H-benzoimidazole-5-carbonitrile; compound with trifluoroacetic acid] | < 100
COc1ccc(S(=O)(=O)n2c(=O)n(C(C(=O)N3CC[C@H](Nc4ccnc(C)c4)C3)c3ccccc3)c3cc(C#N)ccc32)cc1 (stereo partly drawn) [Example 254, 1-(4-Methoxy-benzenesulfonyl)-3-{2-[(S)-3-(2-methyl-pyridine-4-ylamino)-pyrrolidin-1-yl]-2-oxo-1-phenyl-ethyl}-2-oxo-2,3-dihydro-1H-benzoimidazole-5-carbonitrile; compound with trifluoroacetic acid] | 100 to 500

Second part, the molecule after the results:

Ki [nM] | SMILES
< 100 | COc1ccc(S(=O)(=O)n2c(=O)n(C(C(=O)N3CC[C@H](NC4CCN(CCF)CC4)C3)c3ccccc3)c3cc(C#N)ccc32)cc1 (stereo partly drawn) [Example 245, 3-(2-{(S)-3-[1-(2-Fluoro-ethyl)-piperidin-4-ylamino]-pyrrolidin-1-yl}-2-oxo-1-phenyl-ethyl)-1-(4-methoxy-benzenesulfonyl)-2-oxo-2,3-dihydro-1H-benzoimidazole-5-carbonitrile]
100 to 500 | COc1ccc(S(=O)(=O)n2c(=O)n(C(C(=O)N3CCC[C@H](NC4CCN(C)CC4)C3)c3ccccc3)c3cc(C#N)ccc32)cc1 (stereo partly drawn) [Example 246, 1-(4-Methoxy-benzenesulfonyl)-3-{2-[(S)-3-(1-methyl-piperidin-4-ylamino)-piperidin-1-yl]-2-oxo-1-phenyl-ethyl}-2-oxo-2,3-dihydro-1H-benzoimidazole-5-carbonitrile]
100 to 500 | COc1ccc(S(=O)(=O)n2c(=O)n(C(C(=O)N3CCC[C@@H](NC4CCN(C)CC4)C3)c3ccccc3)c3cc(C#N)ccc32)cc1 (stereo partly drawn) [Example 248, 1-(4-Methoxy-benzenesulfonyl)-3-{2-[(R)-3-(1-methyl-piperidin-4-ylamino)-piperidin-1-yl]-2-oxo-1-phenyl-ethyl}-2-oxo-2,3-dihydro-1H-benzoimidazole-5-carbonitrile]
100 to 500 | COc1ccc(S(=O)(=O)n2c(=O)n(C(C(=O)N3CC[C@H](NC(=O)C4CCN(C)CC4)C3)c3ccccc3)c3cc(C#N)ccc32)cc1 (stereo partly drawn) [Example 252, 1-Methyl-piperidine-4-carboxylic acid ((S)-1-{2-[6-cyano-3-(4-methoxybenzenesulfonyl)-2-oxo-2,3-dihydro-benzoimidazol-1-yl]-2-phenyl-acetyl}-pyrrolidin-3-yl)-amide; compound with trifluoroacetic acid]
< 100 | COc1ccc(S(=O)(=O)n2c(=O)n(C(C(=O)N3CC[C@H](CNC4CCN(C)CC4)C3)c3ccccc3)c3cc(C#N)ccc32)cc1 (stereo partly drawn) [Example 255, 1-(4-Methoxy-benzenesulfonyl)-3-(2-{(R)-3-[(1-methyl-piperidin-4-ylamino)-methyl]-pyrrolidin-1-yl}-2-oxo-1-phenyl-ethyl)-2-oxo-2,3-dihydro-1H-benzoimidazole-5-carbonitrile; compound with trifluoroacetic acid]
< 100 | COc1ccc(S(=O)(=O)n2c(=O)n(C(C(=O)N3CC[C@H](CN(C)C4CCN(C)CC4)C3)c3ccccc3)c3cc(C#N)ccc32)cc1 (stereo partly drawn) [Example 256, 1-(4-Methoxy-benzenesulfonyl)-3-[2-((R)-3-{[methyl-(1-methyl-piperidin-4-yl)-amino]-methyl}-pyrrolidin-1-yl)-2-oxo-1-phenyl-ethyl]-2-oxo-2,3-dihydro-1H-benzoimidazole-5-carbonitrile; compound with trifluoroacetic acid]
